Laboratory results as given in DBAASP.
Values after ≈ are worked out from the molar mass of the structure shown. Values belong to the compound of their own block, whether it stands above or below them.

How the values were obtained:
Assay in all cases: ≥ marks a high value that may be exact or a test limit, other limits are often not marked, values filed in µg/mL are converted to µM
Bacillus subtilis 168 HT = tested on: Bacillus subtilis 168 HT
[1] = tested on: Escherichia coli K12 MG1655
[2] = tested on: Candida albicans NCYC 1467
[3] = tested on: Escherichia coli NCTC 10418
[4] = tested on: Pseudomonas aeruginosa ATCC 27853
[5] = tested on: Staphylococcus aureus NCTC 10788
[6] = tested on: Bacillus subtilis ATCC 6633
[7] = tested on: Candida albicans ATCC 90112
[8] = tested on: Escherichia coli ATCC 25922
[9] = tested on: Micrococcus luteus ATCC 10240
Proteus mirabilis = tested on: Proteus mirabilis
[10] = tested on: Staphylococcus aureus ATCC 25923
[11] = tested on: Staphylococcus epidermidis
[12] = tested on: Stenotrophomonas maltophilia ATCC 13637
Streptococcus pyogenes = tested on: Streptococcus pyogenes
Bacillus cereus AS1.126 = tested on: Bacillus cereus AS1.126
[13] = tested on: Enterobacter cloacae CGMCC 1.58
[14] = tested on: Enterococcus faecalis CGMCC 1.595
[15] = tested on: Enterococcus faecium CGMCC 1.2334
Escherichia coli AS1.349 = tested on: Escherichia coli AS1.349
[16] = tested on: Klebsiella pneumoniae subsp. pneumoniae CGMCC 1.176
[17] = tested on: Proteus mirabilis CICC 22931
[18] = tested on: Pseudomonas aeruginosa CGMCC 1.860
[19] = tested on: Staphylococcus aureus AS1.72
[20] = tested on: Staphylococcus epidermidis CICC 23664
[21] = tested on: Klebsiella pneumoniae ATCC 13883
[22] = tested on: Staphylococcus aureus USA 300 LAC
Escherichia coli MG1655 = tested on: Escherichia coli MG1655
Candida albicans MDM8 = tested on: Candida albicans MDM8
Micrococcus luteus A270 = tested on: Micrococcus luteus A270
[23] = tested on: Serratia marcescens ATCC 4112
[24] = tested on: Staphylococcus aureus ATCC 29213
[25] = tested on: Staphylococcus epidermidis ATCC 12228
[26] = tested on: Escherichia coli ATCC 11219
[27] = tested on: Klebsiella pneumoniae ATCC 10031
[28] = tested on: Pseudomonas aeruginosa ATCC 13388
[29] = tested on: Salmonella enterica subsp. enterica serovar Typhimurium ATCC 14028
[30] = tested on: Staphylococcus aureus ATCC 6538
[31] = tested on: Pseudomonas aeruginosa PAO1
[32] = tested on: Staphylococcus aureus USA 300

MIC (Bacillus subtilis 168 HT): 21.2 µM (≈ 32 µg/mL)
MIC [1]: 10.6 µM (≈ 16 µg/mL)
SMILES: CC[C@H](C)[C@H](N)C(=O)N[C@@H](CC(N)=O)C(=O)N[C@H](C(=O)N[C@H](C(=O)N[C@@H](CC(N)=O)C(=O)N[C@@H](C)C(=O)N1CCC[C@H]1C(=O)N[C@@H](CC(C)C)C(=O)N[C@@H](CCC(N)=O)C(=O)NCC(=O)N[C@@H](Cc1ccccc1)C(=O)N[C@@H](CCCCN)C(=O)N[C@H](C(=O)N[C@@H](C)C(=O)O)[C@@H](C)CC)[C@@H](C)CC)[C@@H](C)CC [INIINAPLQGFKIA]

MIC [2]: ≥ 98 µM
MIC [3]: ≥ 196 µM
MIC [4]: > 196 µM
MIC [5]: ≥ 196 µM
SMILES: CC(C)C[C@H](NC(=O)[C@H](CCCN=C(N)N)NC(=O)[C@H](CC(N)=O)NC(=O)[C@H](CC(C)C)NC(=O)[C@H](CCCCN)NC(=O)[C@H](CCCCN)NC(=O)[C@H](CC(C)C)NC(=O)[C@@H](NC(=O)[C@@H](N)CC(N)=O)C(C)C)C(=O)N[C@@H](CCCCN)C(=O)N[C@@H](CCC(=O)O)C(=O)N[C@@H](CCCCN)C(=O)N[C@@H](CC(N)=O)C(=O)N[C@@H](CCCCN)C(=O)N[C@@H](C)C(=O)N[C@@H](CCCCN)C(=O)N[C@@H](CC(N)=O)C(=O)N[C@@H](CO)C(=O)N[C@@H](CCCCN)C(=O)N[C@@H](CCC(=O)O)C(=O)N[C@@H](CC(N)=O)C(=O)N[C@@H](CC(N)=O)C(=O)O [NVLKKLNRLKEKNKAKNSKENN]

MIC [6]: 7.5 µM (≈ 12.2 µg/mL)
MIC [7]: 7.5 µM (≈ 12.2 µg/mL)
MIC [8]: 30 µM (≈ 48.7 µg/mL)
MIC [9]: 15 µM (≈ 24.4 µg/mL)
MIC (Proteus mirabilis): ≥ 60 µM
MIC [4]: 30 µM (≈ 48.7 µg/mL)
MIC [10]: 60 µM (≈ 97.4 µg/mL)
MIC [11]: 30 µM (≈ 48.7 µg/mL)
MIC [12]: 15 µM (≈ 24.4 µg/mL)
MIC (Streptococcus pyogenes): 15 µM (≈ 24.4 µg/mL)
SMILES: CC[C@H](C)[C@H](NC(=O)[C@H](CC(C)C)NC(=O)CNC(=O)[C@H](CCCCN)NC(=O)[C@H](CC(C)C)NC(=O)[C@H](CC(N)=O)NC(=O)[C@@H](N)CC(C)C)C(=O)N[C@@H](CCCCN)C(=O)N[C@@H](CCCCN)C(=O)N[C@H](C(=O)N[C@@H](C)C(=O)N[C@@H](CO)C(=O)N[C@@H](CC(C)C)C(=O)N[C@@H](CC(C)C)C(=O)N[C@@H](CC(N)=O)C(=O)O)C(C)C [LNLKGLIKKVASLLN]

MIC (Bacillus cereus AS1.126): 20 µM (≈ 34 µg/mL)
MIC [13]: ≥ 100 µM
MIC [14]: 10 µM (≈ 17 µg/mL)
MIC [15]: 12.5 µM (≈ 21.2 µg/mL)
MIC (Escherichia coli AS1.349): 10 µM (≈ 17 µg/mL)
MIC [16]: ≥ 100 µM
MIC [17]: ≥ 100 µM
MIC [18]: 10 µM (≈ 17 µg/mL)
MIC [19]: 12.5 µM (≈ 21.2 µg/mL)
MIC [20]: 6.25 µM (≈ 10.6 µg/mL)
SMILES: CC[C@H](C)[C@H](N)C(=O)N[C@@H](CCCCN)C(=O)N[C@@H](CCCCN)C(=O)N[C@H](C(=O)N[C@@H](CC(C)C)C(=O)N[C@@H](CO)C(=O)N[C@@H](CCCCN)C(=O)N[C@H](C(=O)N[C@@H](CCCCN)C(=O)N[C@@H](CCCCN)C(=O)N[C@@H](Cc1c[nH]c2ccccc12)C(=O)N[C@@H](Cc1c[nH]c2ccccc12)C(=O)N[C@@H](CCCCN)C(=O)O)[C@@H](C)CC)[C@@H](C)CC [IKKILSKIKKWWK]

MIC [8]: 8.8 µM (≈ 11.2 µg/mL)
MIC [21]: 12.5 µM (≈ 15.9 µg/mL)
MIC [22]: 3.1 µM (≈ 3.94 µg/mL)
SMILES: CC[C@H](C)[C@H](NC(=O)[C@@H](N)CCCCN)C(=O)N[C@@H](Cc1c[nH]c2ccccc12)C(=O)N[C@@H](Cc1c[nH]c2ccccc12)C(=O)N[C@@H](Cc1c[nH]c2ccccc12)C(=O)N[C@@H](Cc1c[nH]c2ccccc12)C(=O)N[C@@H](CC(C)C)C(=O)N[C@@H](CCCN=C(N)N)C(N)=O [KIWWWWLR]

MIC (Bacillus subtilis 168 HT): ≥ 99.1 µM
MIC (Escherichia coli MG1655): ≥ 99.1 µM
SMILES: CC[C@H](C)[C@H](NC(=O)[C@H](CCCCN)NC(=O)[C@H](CCCCN)NC(=O)[C@H](CC(C)C)NC(=O)[C@H](Cc1cnc[nH]1)NC(=O)[C@H](CCCCN)NC(=O)[C@H](CCCCN)NC(=O)[C@H](CC(C)C)NC(=O)[C@@H](N)CCCN=C(N)N)C(=O)N[C@@H](CCCCN)C(=O)O [RLKKHLKKIK]

MIC (Candida albicans MDM8): ≥ 189 µM
MIC (Micrococcus luteus A270): ≥ 94.5 µM
MIC [23]: ≥ 47.2 µM
MIC [24]: 189 µM (≈ 201 µg/mL)
MIC [25]: 189 µM (≈ 201 µg/mL)
SMILES: CC(C)C[C@H](NC(=O)[C@H](CO)NC(=O)[C@H](Cc1ccccc1)NC(=O)[C@@H]1CCCN1C(=O)[C@@H](N)CCC(N)=O)C(=O)N[C@@H](CCC(=O)O)C(=O)N[C@@H](CCCN=C(N)N)C(=O)N[C@@H](Cc1c[nH]c2ccccc12)C(=O)O [QPFSLERW]

MIC (Bacillus cereus AS1.126): 25 µM (≈ 42.5 µg/mL)
MIC [13]: ≥ 100 µM
MIC [14]: 2.5 µM (≈ 4.25 µg/mL)
MIC [15]: 10 µM (≈ 17 µg/mL)
MIC (Escherichia coli AS1.349): 3.13 µM (≈ 5.32 µg/mL)
MIC [16]: ≥ 100 µM
MIC [17]: ≥ 100 µM
MIC [18]: 5 µM (≈ 8.5 µg/mL)
MIC [19]: 2.5 µM (≈ 4.25 µg/mL)
MIC [20]: 5 µM (≈ 8.5 µg/mL)
SMILES: CC[C@H](C)[C@H](N)C(=O)N[C@@H](CCCCN)C(=O)N[C@@H](CCCCN)C(=O)N[C@H](C(=O)N[C@@H](Cc1c[nH]c2ccccc12)C(=O)N[C@@H](CO)C(=O)N[C@@H](CCCCN)C(=O)N[C@H](C(=O)N[C@@H](CCCCN)C(=O)N[C@@H](CCCCN)C(=O)N[C@@H](CC(C)C)C(=O)N[C@@H](Cc1c[nH]c2ccccc12)C(=O)N[C@@H](CCCCN)C(=O)O)[C@@H](C)CC)[C@@H](C)CC [IKKIWSKIKKLWK]

MIC [26]: 15 µM (≈ 19 µg/mL)
MIC [27]: 20 µM (≈ 25.4 µg/mL)
MIC [28]: 15 µM (≈ 19 µg/mL)
MIC [29]: 15 µM (≈ 19 µg/mL)
MIC [30]: 10 µM (≈ 12.7 µg/mL)
SMILES: CC[C@H](C)[C@H](NC(=O)CN)C(=O)N[C@@H](Cc1cnc[nH]1)C(=O)N[C@@H](CC(=O)O)C(=O)N[C@H](C(=O)N[C@@H](CC(C)C)C(=O)N[C@@H](C)C(=O)N[C@@H](Cc1ccc(O)cc1)C(=O)NCC(=O)N[C@@H](CCCCN)C(=O)N1CCC[C@H]1C(=O)N[C@@H](CO)C(N)=O)[C@@H](C)CC [GIHDILAYGKPS]

MIC [8]: 25 µM (≈ 33.6 µg/mL)
MIC [21]: 25 µM (≈ 33.6 µg/mL)
MIC [31]: 35.4 µM (≈ 47.5 µg/mL)
MIC [22]: 12.5 µM (≈ 16.8 µg/mL)
MIC [32]: 12.5 µM (≈ 16.8 µg/mL)
SMILES: CC[C@H](C)[C@H](NC(=O)[C@H](CCCN=C(N)N)NC(=O)[C@H](CCCN=C(N)N)NC(=O)[C@H](CCCN=C(N)N)NC(=O)[C@H](Cc1c[nH]c2ccccc12)NC(=O)[C@H](Cc1c[nH]c2ccccc12)NC(=O)[C@@H](N)Cc1c[nH]c2ccccc12)C(=O)N[C@@H](Cc1c[nH]c2ccccc12)C(N)=O [WWWRRRIW]
